Experimental data published in patent US6429209B2, “Methods for treating irritable bowel syndrome” (SmithKline Beecham Corporation, priority 1997, dated 2002).
Like-named read-outs stand apart in the source and are kept apart here.

Columns and labels:
IBS patients [1] = assay: 12-week placebo-controlled clinical study of alosetron (1, 2, 4 or 8 mg BID) in nonconstipated IBS patients; type: in vivo, human; settings: for % Responders (adequate relief of IBS pain and discomfort): 12 weeks; for % Days with Urgency / Stool # per day / Stool Consistentcy: mean, week 9-12 interval; for Stool Consistentcy: score 1= very hard to 5= watery; for % Weeks with adequate relief: median
Description: Three hundred and seventy IBS patients were randomised for study: 80 were randomised to treatment with placebo BID, 72 to 1 mg BID alosetron, 74 to 2 mg BID alosetron, 76 to 4 mg BID alosetron and 68 to 8 mg BID alosetron. […] Patients were required to have symptoms which fulfilled the Rome Criteria for IBS (5) for at least 6 months. […] Daily and weekly symptom data were collected using a recently described electronic touch-tone telephone based system (24,25). Patients underwent a 2 week screening period with no IBS treatment to ensure sufficient baseline level of abdominal pain as well as compliance with the data collection system. Pain was assessed daily on a 5 point scale (0=none; 1=mild; 2=moderate; 3=intense; 4=severe). Average baseline pain over the 2 week screening period was required to be between 1.5-3.3, inclusive, and at least 4 days with at least moderate pain was required for enrolment into the study. Stool consistency data were also collected (1=very hard; 2=hard; 3=formed; 4=loose; and 5=watery). During the screening period an average stool consistency score of ≧2.5 was required for entry into the study in order to exclude those with predominant constipation. Following the screening period, eligible patients were randomised with equal allocation to 12 weeks of study medication (BID) of placebo or alosetron 1, 2, 4 or 8 mg taken prior to meals. Patients were followed for 2 weeks post-treatment. During the screening period, treatment phase and follow-up period, patients were asked daily questions about their IBS symptoms. Once every 7 days, during the treatment phase of the study, patients responded to an additional question as to whether they had obtained adequate relief of their IBS-related abdominal pain and discomfort during the previous 7 days. For this study, a responder was prospectively defined as a patient who completed the treatment phase of the study and reported adequate relief of their IBS pain and discomfort for at least 6 weeks. […] In addition, a monthly responder was defined as a patient who reported adequate relief of their IBS pain and discomfort for at least 2 weeks per month. For the monthly analysis, a last observation carried forward procedure was employed, whereby a month with all missing weeks was assigned the number of weeks with adequate relief from the previous non-missing month. Thus, this analysis satisfied the Intent-to-Treat principle by including all patients and months. Treatment groups were compared for the proportion of patients defined as responders, for both endpoints, using a Mantel-Haenszel test stratified for investigator cluster. Finally, the proportion of weeks with adequate relief was compared between treatment groups using a log-rank test. Daily stool consistency scores and daily number of bowel movements were averaged over the baseline, weekly for weeks 1-4, and monthly (weeks 1-4, 5-8, and 9-12) intervals. In addition, the proportion of days patients experienced a sense of urgency was calculated over the monthly and weekly intervals. For the monthly intervals, the treatment groups were compared for change from baseline using a van Elteren test adjusted for investigator cluster. For the weekly intervals, the treatment groups were compared at each week using a van Elteren test adjusted for-investigator cluster.

IBS patients [2] = settings: cited from earlier work
normal volunteers = settings: cited from earlier work
[3] = female patients, alosetron 1 mg BID
[4] = female patients, alosetron 1 mg BID, month 1
[5] = female patients, alosetron 1 mg BID, month 2
[6] = female patients, alosetron 1 mg BID, month 3
[7] = female patients, alosetron 2 mg BID
[8] = female patients, alosetron 4 mg BID
[9] = female patients, alosetron 8 mg BID

For `Cc1[nH]cnc1CN1CCc2c(c3ccccc3n2C)C1=O` [Alosetron, 2,3,4,5-tetrahydro-5-methyl-2-[(5-methyl-1 H-imidazol-4-yl)methyl]-1H-pyrido[4,3-b]indol-1-one], the “abdominal pain and bowel function” value (IBS patients [1]; female IBS patients) was “significantly improved”, the “more responders for adequate relief as compared to placebo” value (IBS patients [1]; [3]) was 27% and the “% Responders (adequate relief of IBS pain and discomfort)” value (IBS patients [1]; [3]) was 60%. The monthly adequate relief (IBS patients [1]; female patients, alosetron 1 mg BID, each month) was “statistically significant improvement”, the “% Responders, monthly intervals (adequate relief)” value (“% Responders, monthly intervals” below) (IBS patients [1]; [4]) was 53% and the “increase in monthly responders above placebo” value (shortened to “increase”) (IBS patients [1]; [4]) was 21%. The “% Responders, monthly intervals” value (IBS patients [1]; [5]) was 62%, the “increase” value (IBS patients [1]; [5]) was 20% and the “% Responders, monthly intervals” value (IBS patients [1]; [6]) was 60%. For the same molecule, the “increase” value (IBS patients [1]; [6]) was 24%, the “% Responders (adequate relief of IBS pain and discomfort)” value (IBS patients [1]; [7]) was 59% and the “% Responders (adequate relief of IBS pain and discomfort)” value (IBS patients [1]; [8]) was 51%. The “% Responders (adequate relief of IBS pain and discomfort)” value (IBS patients [1]; [9]) was 52%, the “time of treatment after which a statistically significant benefit over placebo in bowel parameters was achieved” value (IBS patients [1]; female patients, benefit persisted throughout 12 week treatment) was 1 week and the “% Days with Urgency” value (IBS patients [1]; [3]) was 33.0%. The “Stool # per day” value (IBS patients [1]; [3]) was 1.4, the “Stool Consistentcy” value (IBS patients [1]; [3]) was 2.1 and the “% Days with Urgency” value (IBS patients [1]; [7]) was 35.9%. The “Stool # per day” value (IBS patients [1]; [7]) was 1.7, the “Stool Consistentcy” value (IBS patients [1]; [7]) was 2.2 and the “% Days with Urgency” value (IBS patients [1]; [8]) was 37.8%. The “Stool # per day” value (IBS patients [1]; [8]) was 1.8, the “Stool Consistentcy” value (IBS patients [1]; [8]) was 2.4 and the “% Days with Urgency” value (IBS patients [1]; [9]) was 41.5%. For the same molecule, the “Stool # per day” value (IBS patients [1]; [9]) was 1.3, the “Stool Consistentcy” value (IBS patients [1]; [9]) was 1.8 and the “% Weeks with adequate relief” value (IBS patients [1]; [3]) was 58%. For the same molecule, the “% Weeks with adequate relief” value (IBS patients [1]; [7]) was 50%, the “% Weeks with adequate relief” value (IBS patients [1]; [8]) was 50% and the “% Weeks with adequate relief” value (IBS patients [1]; [9]) was 50%. The “stool consistency, bowel movement frequency and proportion of days with urgency as compared to placebo” value (IBS patients [1]; female patients, most doses of alosetron) was “significantly improved”, the “proportion of weeks with adequate relief” value (IBS patients [1]; male patients) was “no meaningful benefit” and the “% Responders (adequate relief of IBS pain and discomfort)” value (IBS patients [1]; male patients, alosetron 1 mg BID) was 20%. The “% Responders (adequate relief of IBS pain and discomfort)” value (IBS patients [1]; male patients, alosetron 2 mg BID) was 50%, the “% Responders (adequate relief of IBS pain and discomfort)” value (IBS patients [1]; male patients, alosetron 4 mg BID) was 54% and the “% Responders (adequate relief of IBS pain and discomfort)” value (IBS patients [1]; male patients, alosetron 8 mg BID) was 52%. For the same molecule, the “responders for adequate relief relative to placebo” value (IBS patients [1]; male population, any dose of alosetron) was “No meaningful improvement relative to placebo”, the “bowel-related functions with the exception of stool consistency, versus placebo” value (IBS patients [1]; males) was “no significant improvement over placebo” and the “monthly adequate relief relative to placebo” value (IBS patients [1]; males, any month, any dose of alosetron) was “No improvement relative to placebo”. For the same molecule, the stool consistency (IBS patients [1]; males, doses of alosetron higher than 1 mg BID) was “improved significantly”, the tolerability (IBS patients [1]; nonconstipated female IBS patients) was “well tolerated” and the colonic transit (IBS patients [2]; IBS patients, preliminary reports) was “slow colonic transit”. For the same molecule, the abdominal pain (IBS patients [2]; preliminary reports) was “improve abdominal pain”.

In the case of `CN1C2CCCC1CC(NC(=O)c1nn(C)c3ccccc13)C2` (stereo not shown) [granisetron], the post-prandial motor activity (IBS patients [2]; IBS patients) is listed as “reduce post-prandial motor activity” and the rectal sensitivity (IBS patients [2]; IBS patients) is listed as “decrease in rectal sensitivity”.

In the case of `Cc1nccn1CC1CCc2c(c3ccccc3n2C)C1=O` (stereo not shown) [ondansetron], the “contractile response of the colon” value (normal volunteers; healthy volunteers, early postprandial period) is given as “inhibits the contractile response of the colon”, the colonic transit (normal volunteers; normal volunteers) is given as “slow colonic transit” and the stool consistency (IBS patients [2]; diarrhoea-predominant IBS patients) is given as “improves stool consistency”. For the same molecule, the rectal compliance (IBS patients [2]; patients with IBS) was “increases rectal compliance”.
